PubChem BioAssay AID1963447 (Molecular Pharmacology Branch, DTP, NCI, 2024)
Values joined by “and” are separate entries in the source; they are usually repeats but may differ in a detail not shown here. Equal values may be shown once.

System: 885512-296-R-J2-PDC complex spheroid growth, % test/control
Assay: Anticancer human tumor 885512-296-R-J2-PDC patient-derived breast carcinoma cell line growth inhibition [Asc]
Conditions: for viability, T/C: stronger effect = lower value
Method in brief: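 Tumor cells were grown as multicellular spheroids with stromal HUVEC and mesenchymal stem cells and treated singly or in combination. Concentrations fell in half-log steps from the clinical Cmax, or from 10 microM where none was known.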

[1] = curve of first compound, second compound 0.1 µM
[2] = curve of first compound, second compound 0.316 µM
[3] = curve of first compound, second compound 1 µM
[4] = second compound 0.1 µM, first compound 0.0316 µM
[5] = second compound 0.1 µM, first compound 0.1 µM
[6] = second compound 0.1 µM, first compound 0.316 µM
[7] = second compound 0.1 µM, first compound 1 µM
[8] = second compound 0.316 µM, first compound 0.0316 µM
[9] = second compound 0.316 µM, first compound 0.1 µM
[10] = second compound 0.316 µM, first compound 0.316 µM
[11] = second compound 0.316 µM, first compound 1 µM
[12] = second compound 1 µM, first compound 0.0316 µM
[13] = second compound 1 µM, first compound 0.1 µM
[14] = second compound 1 µM, first compound 0.316 µM
[15] = second compound 1 µM, first compound 1 µM
[16] = curve of first compound, second compound 3.16 µM
[17] = curve of first compound, second compound 10 µM
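Also: spheroids exposed to compounds for seven days.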
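For viability, T/C in this document: 100% = DMSO vehicle control wells.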

O=C(c1cc(Cc2n[nH]c(=O)c3ccccc23)ccc1F)N1CCN(C(=O)C2CC2)CC1 + CNC(C)C(=O)NC1CN(S(=O)(=O)c2cccc(S(=O)(=O)N3CCC4CCC(C(=O)NC(c5ccccc5)c5ccccc5)N4C(=O)C(NC(=O)C(C)NC)C3)c2)CCC2CCC(C(=O)NC(c3ccccc3)c3ccccc3)N2C1=O
IC50 (curve of first compound, second compound 0.01 µM): 4.11 µM
IC50 (curve of first compound, second compound 0.0316 µM): 2.96 µM
IC50 [1]: 3.93 µM
IC50 [2]: 3.85 µM
IC50 [3]: 3.63 µM
viability, T/C (second compound 0.01 µM, first compound 0.0316 µM): 95.6%
viability, T/C (second compound 0.01 µM, first compound 0.1 µM): 96.4%
viability, T/C (second compound 0.01 µM, first compound 0.316 µM): 95.6%
viability, T/C (second compound 0.01 µM, first compound 1 µM): 94.5%
viability, T/C (second compound 0.01 µM, first compound 3.16 µM): 60.7%
viability, T/C (second compound 0.01 µM, first compound 10 µM): 13.5%
viability, T/C (second compound 0.0316 µM, first compound 0.0316 µM): 97.1%
viability, T/C (second compound 0.0316 µM, first compound 0.1 µM): 101%
viability, T/C (second compound 0.0316 µM, first compound 0.316 µM): 99.6%
viability, T/C (second compound 0.0316 µM, first compound 1 µM): 84%
viability, T/C (second compound 0.0316 µM, first compound 3.16 µM): 48.2%
viability, T/C (second compound 0.0316 µM, first compound 10 µM): 14.4%
viability, T/C [4]: 97.9%
viability, T/C [5]: 98.2%
viability, T/C [6]: 106%
viability, T/C [7]: 86.2%
viability, T/C (second compound 0.1 µM, first compound 3.16 µM): 59.8%
viability, T/C (second compound 0.1 µM, first compound 10 µM): 10.6%
viability, T/C [8]: 101%
viability, T/C [9]: 106%
viability, T/C [10]: 102%
viability, T/C [11]: 89.3%
viability, T/C (second compound 0.316 µM, first compound 3.16 µM): 58.1%
viability, T/C (second compound 0.316 µM, first compound 10 µM): 12%
viability, T/C [12]: 96.1%
viability, T/C [13]: 97.8%
viability, T/C [14]: 95.4%
viability, T/C [15]: 87.2%
viability, T/C (second compound 1 µM, first compound 3.16 µM): 55%
viability, T/C (second compound 1 µM, first compound 10 µM): 13.1%

Cc1nc(N2CCC3(CC2)COC(C)C3N)c(CO)nc1Sc1ccnc(N)c1Cl (configuration not stated) + Cc1c(S(C)(=O)=O)c(-c2cc(F)cc(N3CCN(c4ccc(NS(=O)(=O)c5ccc(NC(CCN6CCC(C(=O)OCCCP(=O)(O)O)CC6)CSc6ccccc6)c(S(=O)(=O)C(F)(F)F)c5)cc4)CC3)c2)c(-c2ccc(Cl)cc2)n1C(C)C
IC50 [1]: 0.275 µM
IC50 [2]: 0.275 µM
IC50 [3]: 0.172 µM
IC50 [16]: 0.167 µM
IC50 [17]: > 3 µM
viability, T/C (second compound 0.1 µM, first compound 0.00949 µM): 83.7%
viability, T/C (second compound 0.1 µM, first compound 0.03 µM): 67.7%
viability, T/C (second compound 0.1 µM, first compound 0.0949 µM): 58%
viability, T/C (second compound 0.1 µM, first compound 0.3 µM): 50.4%
viability, T/C (second compound 0.1 µM, first compound 0.949 µM): 42.1%
viability, T/C (second compound 0.1 µM, first compound 3 µM): 32.4%
viability, T/C (second compound 0.316 µM, first compound 0.00949 µM): 76.5%
viability, T/C (second compound 0.316 µM, first compound 0.03 µM): 63.7%
viability, T/C (second compound 0.316 µM, first compound 0.0949 µM): 62.7%
viability, T/C (second compound 0.316 µM, first compound 0.3 µM): 46.2%
viability, T/C (second compound 0.316 µM, first compound 0.949 µM): 42.8%
viability, T/C (second compound 0.316 µM, first compound 3 µM): 37%
viability, T/C (second compound 1 µM, first compound 0.00949 µM): 76.7%
viability, T/C (second compound 1 µM, first compound 0.03 µM): 60.2%
viability, T/C (second compound 1 µM, first compound 0.0949 µM): 59.1%
viability, T/C (second compound 1 µM, first compound 0.3 µM): 41.8%
viability, T/C (second compound 1 µM, first compound 0.949 µM): 42.6%
viability, T/C (second compound 1 µM, first compound 3 µM): 34.7%
viability, T/C (second compound 3.16 µM, first compound 0.00949 µM): 94.5%
viability, T/C (second compound 3.16 µM, first compound 0.03 µM): 67.4%
viability, T/C (second compound 3.16 µM, first compound 0.0949 µM): 56.8%
viability, T/C (second compound 3.16 µM, first compound 0.3 µM): 45.4%
viability, T/C (second compound 3.16 µM, first compound 0.949 µM): 39.5%
viability, T/C (second compound 3.16 µM, first compound 3 µM): 33.4%
viability, T/C (second compound 10 µM, first compound 0.00949 µM): 117%
viability, T/C (second compound 10 µM, first compound 0.03 µM): 110%
viability, T/C (second compound 10 µM, first compound 0.0949 µM): 96.2%
viability, T/C (second compound 10 µM, first compound 0.3 µM): 113%
viability, T/C (second compound 10 µM, first compound 0.949 µM): 95.9%
viability, T/C (second compound 10 µM, first compound 3 µM): 85.9%

CCN1CCN(Cc2ccc(Nc3ncc(F)c(-c4cc(F)c5nc(C)n(C(C)C)c5c4)n3)nc2)CC1 + Cc1c(S(C)(=O)=O)c(-c2cc(F)cc(N3CCN(c4ccc(NS(=O)(=O)c5ccc(NC(CCN6CCC(C(=O)OCCCP(=O)(O)O)CC6)CSc6ccccc6)c(S(=O)(=O)C(F)(F)F)c5)cc4)CC3)c2)c(-c2ccc(Cl)cc2)n1C(C)C
IC50 [1]: > 1 µM
IC50 [2]: > 1 µM
IC50 [3]: > 1 µM
IC50 [16]: > 1 µM
IC50 [17]: > 1 µM
viability, T/C (second compound 0.1 µM, first compound 0.00316 µM): 85.9%
viability, T/C (second compound 0.1 µM, first compound 0.01 µM): 104%
viability, T/C [4]: 89.3%
viability, T/C [5]: 71.7%
viability, T/C [6]: 65.5%
viability, T/C [7]: 61%
viability, T/C (second compound 0.316 µM, first compound 0.00316 µM): 102%
viability, T/C (second compound 0.316 µM, first compound 0.01 µM): 89.9%
viability, T/C [8]: 83.3%
viability, T/C [9]: 68.3%
viability, T/C [10]: 66.1%
viability, T/C [11]: 65%
viability, T/C (second compound 1 µM, first compound 0.00316 µM): 92.6%
viability, T/C (second compound 1 µM, first compound 0.01 µM): 91.5%
viability, T/C [12]: 76%
viability, T/C [13]: 76.3%
viability, T/C [14]: 67.8%
viability, T/C [15]: 69.1%
viability, T/C (second compound 3.16 µM, first compound 0.00316 µM): 90.8%
viability, T/C (second compound 3.16 µM, first compound 0.01 µM): 83.5%
viability, T/C (second compound 3.16 µM, first compound 0.0316 µM): 92.6%
viability, T/C (second compound 3.16 µM, first compound 0.1 µM): 89%
viability, T/C (second compound 3.16 µM, first compound 0.316 µM): 72.5%
viability, T/C (second compound 3.16 µM, first compound 1 µM): 61.9%
viability, T/C (second compound 10 µM, first compound 0.00316 µM): 118%
viability, T/C (second compound 10 µM, first compound 0.01 µM): 116%
viability, T/C (second compound 10 µM, first compound 0.0316 µM): 108%
viability, T/C (second compound 10 µM, first compound 0.1 µM): 126%
viability, T/C (second compound 10 µM, first compound 0.316 µM): 125%
viability, T/C (second compound 10 µM, first compound 1 µM): 113%

COc1c(OCCCN2CCOCC2)ccc2c3n(c(=NC(=O)c4cnc(N)nc4)nc12)CCN3
viability, T/C (compound 0.00316 µM): 99.3% and 90.1% and 99%
viability, T/C (compound 0.01 µM): 100% and 92.6% and 92%
viability, T/C (compound 0.0316 µM): 86.8% and 80.5% and 89.4%
viability, T/C (compound 0.1 µM): 74.3% and 76% and 89%
viability, T/C (compound 0.316 µM): 43.6% and 43.9% and 56.3%
viability, T/C (compound 1 µM): 6.01% and 5.98% and 9.51%
IC50 (curve of compound): 0.249 µM and 0.255 µM and 0.37 µM
